Each structure is given as a SMILES string. Bounds are passed on as bounds.

This experiment concerns the target T1, EAG1 (mEAG1) (Mus musculus, UniProt Q60603).
T1 construct: gene Kcnh1
T1 sequence (Q60603 505-702): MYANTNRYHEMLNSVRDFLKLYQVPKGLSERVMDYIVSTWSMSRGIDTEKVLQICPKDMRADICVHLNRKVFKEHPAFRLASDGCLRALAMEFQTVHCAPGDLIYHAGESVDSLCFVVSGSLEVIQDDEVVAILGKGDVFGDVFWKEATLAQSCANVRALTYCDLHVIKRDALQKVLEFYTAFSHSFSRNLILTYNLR
Description: tryptophan fluorescence titration of purified C-terminal region; gating effect also seen in inside-out patches. Type of experiment: binding.

A word on the Kd: it is the constant that tells how readily two partners part at equilibrium. Higher therefore signals a looser complex. Turning to `O=c1c(O)c(-c2cc(O)c(O)c(O)c2)oc2cc(O)cc(O)c12` [myricetin], the equilibrium dissociation constant (Kd) is above 100 µM.

These data come from article PMC2932742, “Identifying Regulators for EAG1 Channels with a Novel Electrophysiology and Tryptophan Fluorescence Based Screen” (PLoS ONE, 2010).
